The results in this text go back to patent publication US11773085B2 (Foghorn Therapeutics Inc., priority 2018, dated 2023).

Type in all cases: cell-based
Experiment [1] concerns synovial sarcoma cell lines (SYO1, Yamato, HS-SY-II, and ASKA). Description: Growth of synovial sarcoma cell lines (IncuCyte confluency, crystal violet, colony imaging). The following applies: 1 μM in crystal violet assay, FIGS. 5, 6, 7. The protocol:
(§1) Cells were treated with DMSO or the BRD9 degrader, Compound 1, at indicated concentrations, and proliferation was monitored from day 7 to day 14 by measuring confluency over time using an IncuCyte live cell analysis system (FIG. 5). Growth medium and compounds were refreshed every 3-4 days.
(§2) Cells were seeded into 12-well plates and treated with DMSO, 1 μM BRD9 inhibitor, Compound 2 (also known as BI-7273, see Martin et al, J Med Chem. 59(10):4462-4475 (2016); see structure of compound 2 below), or 1 μM BRD9 degrader, Compound 1.
(§3) The number of cells was optimized for each cell line. Growth medium and compounds were refreshed every 3-5 days. SYO1, Yamato, A549, 293T and HS-SY-II cells were fixed and stained at day 11. ASKA cells were fixed and stained at day 23. Staining was done by incubation with crystal violet solution (0.5 g Crystal Violet, 27 ml 37% Formaldehyde, 100 mL 10×PBS, 10 mL Methanol, 863 dH20 to 1 L) for 30 min followed by 3× washes with water and drying the plates for at least 24 h at room temperature. Subsequently plates were scanned on an Odyssey CLx Imaging system (FIG. 6).
(§4) Cells were seeded into 96-well ultra low cluster plate (Costar, #7007) in 200 μL complete media and treated at day 2 with DMSO, Staurosporin, or BRD9 degarder, Compound 1, at indicated doses (FIG. 7). Media and compounds were changed every 5 d and cell colonies were imaged at day 14.

For experiment [2], the system named is non-synovial control cancer cell lines (293T, A549, G401). Description: Growth of non-synovial control cancer cell lines (crystal violet, colony imaging). The following applies: FIGS. 5, 6, 7. The protocol:
as §1, §2, §3, §4

Experiment [3] deals with synovial sarcoma cell lines (SYO1, HS-SY-II, and ASKA). Description: Growth of synovial sarcoma cell lines, crystal violet staining at day 14. To be noted: for inhibition of cell growth: SYO1, HS-SY-II, ASKA, treated daily, day 14, FIG. 8. The method, then: (§5) Cells were seeded into 6-well or 12-well plates and were treated daily with a BRD9 degrader (Compound 1), a bromo-domain BRD9 binder (Compound 2), E3 ligase binder (lenalidomide), DMSO, or staurosporin (positive control for cell killing), at indicated concentrations. The number of cells was optimized for each cell line. Growth media was refreshed every 5 days. By day 14, medium was removed, cells were washed with PBS, and stained using 500 μL of 0.005% (w/v) crystal violet solution in 25% (v/v) methanol for at least 1 hour at room temperature. Subsequently plates were scanned on an Odyssey CLx Imaging system.

In experiment [4] the test system is non-synovial control cancer cell lines (RD, HCT116, and Calu6). Description: Growth of non-synovial control cancer cell lines, crystal violet staining at day 14. To be noted: treated daily, FIG. 9. The method, then:
as §5

The test system of experiment [5] is SYO1 cells. Nature of the experiment: Cell cycle analysis, Click-iT Plus EdU Flow Cytometry Assay. To be noted: SYO1, 200 nM or 1 μM, 8 or 13 days, compared to DMSO and lenalidomide. The protocol:
(§6) SYO1 cells were treated for 8 or 13 days with DMSO, a BRD9 degrader (Compound 1) at 200 nM or 1 μM, or an E3 ligase binder (lenalidomide) at 200 nM. Compounds were refreshed every 5 days. Cell cycle analysis was performed using the Click-iT™ Plus EdU Flow Cytometry Assay (Invitrogen). The apoptosis assay was performed using the Annexin V-FITC Apoptosis Detection Kit (Sigma A9210). Assays were performed according to the manufacturer's protocol.

For experiment [6], the system named is SYO1 cells. Nature of the experiment: Apoptosis assay, Annexin V-FITC Apoptosis Detection Kit. The following applies: SYO1, 200 nM or 1 μM, 8 days, compared to DMSO controls. The method, then: as §6

As to `COc1cc(-c2cn(C)c(=O)c3cnccc23)cc(OC)c1CN(C)CC(=O)NCCOCCOCCNc1cccc2c1C(=O)N(C1CCC(=O)NC1=O)C2=O` (centres unmarked) [Compound 1], the “inhibition of cell growth” value in experiment [1] is recorded as “results in inhibition of the growth of the cells”; in experiment [2] it was “does not result in inhibition of the growth”; in experiment [3] it was “resulted in inhibition of the growth of the cells”; in experiment [4] it was “did not result in inhibition of the growth”. The “growth inhibition compared with the other agents tested” value in experiment [3] (all synovial cell lines, versus Compound 2 and lenalidomide) is given as “most significant growth inhibition”. The “numbers of cells in the S-phase of the cell cycle” value in the experiment with SYO1 cells [5] is “reduced numbers of cells in the S-phase”. Moreover, the “numbers of early- and late-apoptotic cells” value with SYO1 cells [6] was “increased numbers of early- and late-apoptotic cells”.
On to `COc1cc(-c2cn(C)c(=O)c3cnccc23)cc(OC)c1CN(C)C` [Compound 2], for which the “inhibition of cell growth” value in experiment [1] is “results in inhibition of the growth of the cells”; in experiment [2], “does not result in inhibition of the growth”; in experiment [3], “resulted in inhibition of the growth of the cells”; in experiment [4], “did not result in inhibition of the growth”.
